Measured values published in ChEMBL document CHEMBL5029155, “Design, Synthesis, and Biological Evaluation of Stable Colchicine-Binding Site Tubulin Inhibitors 6-Aryl-2-benzoyl-pyridines as Potential Anticancer Agents” (J Med Chem, 2021).

Legend:
MDA-MB-231 = experiment: Antiproliferative activity against human MDA-MB-231 cells assessed as cell growth inhibition incubated for 72 hrs by MTS assay; format: functional, cell-based; settings: MDA-MB-231, 72 h
MDA-MB-453 = experiment: Antiproliferative activity against human MDA-MB-453 cells assessed as cell growth inhibition incubated for 72 hrs by MTS assay; format: functional, cell-based; settings: MDA-MB-453, 72 h
SK-BR-3 = experiment: Antiproliferative activity against human SK-BR-3 cells assessed as cell growth inhibition incubated for 72 hrs by MTS assay; format: functional, cell-based; settings: SK-BR-3, 72 h
A-375 = experiment: Antiproliferative activity against human A-375 cells assessed as cell growth inhibition incubated for 72 hrs by MTS assay; format: functional, cell-based; settings: A-375, 72 h
M14 [1] = experiment: Antiproliferative activity against human M14 cells assessed as cell growth inhibition incubated for 72 hrs by MTS assay; format: functional, cell-based; settings: M14, 72 h
RPMI-7951 = experiment: Antiproliferative activity against human RPMI-7951 cells assessed as cell growth inhibition incubated for 72 hrs by MTS assay; format: functional, cell-based; settings: RPMI-7951, 72 h
[2] = Metabolic stability in human liver microsomes assessed as half life in presence of NADPH regenerating system by UPLC-MS analysis; format: ADME, Microsome; settings: for t1/2: microsomes
[3] = Metabolic stability in human liver microsomes assessed as intrinsic clearance in presence of NADPH regenerating system by UPLC-MS analysis; format: ADME, Microsome; settings: read-out: CLH
[4] = Metabolic stability in mouse liver microsomes assessed as half life in presence of NADPH regenerating system by UPLC-MS analysis; format: ADME, Microsome; settings: for t1/2: microsomes
[5] = Metabolic stability in mouse liver microsomes assessed as intrinsic clearance in presence of NADPH regenerating system by UPLC-MS analysis; format: ADME, Microsome; settings: read-out: CLH
M14 [6] = experiment: Cytotoxicity against paclitaxel resistant human M14 cells measured after 72 hrs […]; format: functional, cell-based; settings: M14, 72 h
[7] = Induction of cell cycle arrest in human A375/TxR cells assessed as accumulation at G2/M phase at 10 nM measured for 24 hrs by PI staining based flow cytometry analysis
M14 [8] = experiment: Cytotoxicity against human M14 cells measured after 72 hrs […]; format: functional, cell-based; settings: M14, 72 h
[9] = Induction of apoptosis in human A375/TxR cells assessed as apoptotic cells at 10 nM measured for 24 hrs by annexin VFITC /PI staining based analysis (reference value: […]); format: functional

SMILES	IC50 (MDA-MB-231)	IC50 (MDA-MB-453)	IC50 (SK-BR-3)	IC50 (A-375)	IC50 (M14 [1])	IC50 (RPMI-7951)	t1/2 [2]	CLint scaled [3]	t1/2 [4]	CLint scaled [5]	IC50 (M14 [6])	Activity [7]	IC50 (M14 [8])	Activity [9]	half-life ([2]; liver microsomes)	half-life ([4]; liver microsomes)
COc1cc(C(=O)c2cc(C)cc(-c3ccc(C)cc3)n2)cc(OC)c1OC	16 nM	9.7 nM	5.5 nM	4.3 nM	4.4 nM	6.4 nM	43.2 min	28.8 mL/min/kg	4.2 min	824 mL/min/kg	–	–	–	–	–	–
COc1cc(C(=O)c2nc(-c3ccc(C(F)F)cc3)ccc2F)cc(OC)c1OC	4.3 nM	4.2 nM	2.4 nM	2.6 nM	3.2 nM	2.1 nM	33 min	38.1 mL/min/kg	90 min	38.2 mL/min/kg	–	–	–	–	–	–
COc1cc2c(c(OC)c1OC)-c1ccc(OC)c(=O)cc1[C@@H](NC(C)=O)CC2 [COLCHICINE]	–	–	–	–	–	–	–	–	–	–	> 1000 nM	–	–	–	–	–
COc1cc(C(=O)c2cncc(-c3cccc4[nH]ncc34)n2)cc(OC)c1OC	38 nM	51.5 nM	46.1 nM	20.8 nM	21.9 nM	23.8 nM	–	–	–	–	–	–	–	–	–	–
COc1cc(C(=O)c2cc(C)cc(-c3ccc(C)c(N)c3)n2)cc(OC)c1OC	5.5 nM	5.5 nM	3.5 nM	8.8 nM	5.9 nM	6.3 nM	–	–	–	–	–	–	–	–	–	–
COc1cc(C(=O)c2nc(-c3ccc(C)c(O)c3)[nH]c2C)cc(OC)c1OC	112 nM	28.1 nM	25.6 nM	52.3 nM	46.6 nM	56 nM	–	–	–	–	–	–	–	–	–	–
COc1cc(C(=O)c2c[nH]c(-c3ccc(C)c(O)c3)n2)cc(OC)c1OC	24.3 nM	23.2 nM	57.6 nM	41.2 nM	32.4 nM	78.4 nM	142.2 min	8.8 mL/min/kg	84.6 min	40.6 mL/min/kg	–	–	–	–	–	–
COc1cc(C(=O)c2cncc(-c3c[nH]c4ccccc34)n2)cc(OC)c1OC	12.4 nM	13.2 nM	35 nM	16.7 nM	19.2 nM	14.4 nM	–	–	–	–	–	–	–	–	–	–
COc1cc(C(=O)c2cccc(-c3ccc(C)cc3)n2)cc2c1OCCO2	5.3 nM	3.2 nM	3.2 nM	3.6 nM	4.5 nM	3.1 nM	7.2 min	172 mL/min/kg	1.8 min	1900 mL/min/kg	–	–	–	–	–	–
COc1cc(C(=O)c2ccnc(-c3c[nH]c4ccccc34)n2)cc(OC)c1OC	31.6 nM	14.2 nM	17.1 nM	36.1 nM	29.1 nM	29.7 nM	–	–	–	–	–	–	–	–	–	–
COc1cc(C(=O)c2cc(OC)c(OC)c(OC)c2)nc(-c2ccc(C)cc2)c1	11.1 nM	5 nM	4.5 nM	7.9 nM	7.7 nM	6.8 nM	27.6 min	45 mL/min/kg	> 240 min	13 mL/min/kg	–	–	–	–	–	–
COc1cc(C(=O)c2cccc(-c3ccc(C)c(O)c3)n2)cc(OC)c1OC	3.3 nM	1.1 nM	4.1 nM	2 nM	2 nM	2.8 nM	10.8 min	116 mL/min/kg	–	57.3 mL/min/kg	–	60%	–	–	–	–
COc1cc(-n2ccc3ccc(-c4ccc(C)cc4)nc32)cc(OC)c1OC	515 nM	139 nM	82.9 nM	174 nM	76.5 nM	205 nM	–	–	–	–	–	–	–	–	–	–
COc1cc(C(=O)c2cncc(-c3ccc(C)cc3)n2)cc(OC)c1OC	4.8 nM	6.7 nM	7.1 nM	2.5 nM	1.7 nM	2.2 nM	20.4 min	–	42.6 min	65.8 mL/min/kg	–	–	–	–	–	–
COCCOc1c(OC)cc(C(=O)c2cccc(-c3ccc(C)cc3)n2)cc1OC	6.6 nM	2.1 nM	4.2 nM	3.7 nM	2.4 nM	5 nM	9 min	136 mL/min/kg	8.4 min	397 mL/min/kg	–	–	–	–	–	–
COc1cc(C(=O)c2cc(F)cc(-c3ccc(C(F)F)cc3)c2)cc(OC)c1OC	45 nM	89.7 nM	52.3 nM	80.9 nM	56.3 nM	40.8 nM	–	–	–	–	–	–	–	–	–	–
COc1cc(-c2n[nH]c3ccc(-c4ccc(C)c(O)c4)nc23)cc(OC)c1OC	22.3 nM	54.9 nM	65.6 nM	21.1 nM	18.5 nM	22.9 nM	205.2 min	6.1 mL/min/kg	167.4 min	20.5 mL/min/kg	–	–	–	–	–	–
CC(=O)O[C@H]1C(=O)[C@@]2(C)[C@H]([C@H](OC(=O)c3ccccc3)[C@]3(O)C[C@H](OC(=O)[C@H](O)[C@@H](NC(=O)c4ccccc4)c4ccccc4)C(C)=C1C3(C)C)[C@]1(OC(C)=O)CO[C@@H]1C[C@@H]2O [PACLITAXEL]	–	–	–	–	–	–	–	–	–	–	186 nM	–	0.5 nM	11.8%	–	–
COc1cc(C(=O)c2nc(-c3ccc(C)cc3)ccc2F)cc(OC)c1OC	2.3 nM	2.5 nM	1.9 nM	3.7 nM	2.6 nM	3.4 nM	9.6 min	133 mL/min/kg	12.6 min	273 mL/min/kg	–	–	–	–	–	–
COc1cc(C(=O)c2cccc(-c3ccc4c(c3)CCN4)n2)cc(OC)c1OC	5.3 nM	5.9 nM	5.5 nM	5 nM	5.6 nM	5.9 nM	–	83.6 mL/min/kg	–	818 mL/min/kg	–	–	–	–	15 min	4.2 min
COc1cc(C(=O)c2cncc(-c3ccc(C)c(O)c3)n2)cc(OC)c1OC	8 nM	4 nM	26.7 nM	5.9 nM	5.2 nM	5.2 nM	46.8 min	26.6 mL/min/kg	119.4 min	28.7 mL/min/kg	–	–	–	–	–	–
COc1cc(C(=O)c2ccnc(-c3ccc(C)c(O)c3)n2)cc(OC)c1OC	15.1 nM	2.8 nM	12 nM	6.8 nM	5.4 nM	7.2 nM	9 min	142 mL/min/kg	78.6 min	43.8 mL/min/kg	–	–	–	–	–	–
COc1cc(C(=O)c2nc(-c3ccc(C)c(O)c3)[nH]c2Br)cc(OC)c1OC	70.9 nM	68.1 nM	119 nM	85 nM	76.3 nM	133 nM	–	–	–	–	–	–	–	–	–	–
COc1cc(C(=O)c2cc(OC)c(OC)c(OC)c2)nc(-c2ccc(C)c(O)c2)c1	17.6 nM	14.7 nM	16.9 nM	22.2 nM	17.5 nM	17.2 nM	42.6 min	29.2 mL/min/kg	45 min	76.7 mL/min/kg	–	–	–	–	–	–
COc1cc(C(=O)c2cccc(-c3ccc(C)c(NC(C)=O)c3)n2)cc(OC)c1OC	33.4 nM	19.3 nM	15.2 nM	28.8 nM	12.6 nM	21.2 nM	–	–	–	–	–	–	–	–	–	–
COc1cc(C(=O)c2cccc(-c3ccc(C)cc3)n2)cc(OC)c1OC	5.3 nM	3.9 nM	4.2 nM	2.4 nM	3.1 nM	3.5 nM	4.2 min	317 mL/min/kg	3 min	1050 mL/min/kg	–	–	–	–	–	–
COc1cc(C(=O)c2cccc(-c3ccc(N(C)C)cc3)n2)cc(OC)c1OC	42.7 nM	33.7 nM	54.5 nM	53.8 nM	63.5 nM	44 nM	–	–	–	–	–	–	–	–	–	–
COc1cc(C(=O)c2cccc(-c3ccc(C(F)F)cc3)n2)cc(OC)c1OC	4.7 nM	4 nM	3.8 nM	3 nM	4.7 nM	2.8 nM	5.4 min	240 mL/min/kg	12.6 min	271 mL/min/kg	–	–	–	–	–	–
CCc1c(OC)cc(C(=O)c2cccc(-c3ccc(C)c(O)c3)n2)cc1OC	37.4 nM	8.7 nM	10.1 nM	15.1 nM	24.8 nM	13.9 nM	54.6 min	22.9 mL/min/kg	211.8 min	16.2 mL/min/kg	–	–	–	–	–	–
